Measured values published in US9422493B2, “Tritylated alkyl aryl ethers” (Rohm and Haas Company, priority 2012, dated 2016).
One block for each compound: values may come before it.

Key:
Type in all cases: physicochemical
[1] = Solubility studies: 0.1 g marker candidate in 0.9 g solvent, solution stability at 60 C, room temperature and -10 C
Description: Solutions were made from 0.1 grams of marker candidate and 0.9 grams of solvent. The mixtures were warmed briefly to 60° C. to completely dissolve the marker candidate, then the solutions were cooled to room temperature. The solutions were then placed into a −10° C. freezer, and the stability of the solutions was monitored for at least 7 days.
DPGME is dipropylene glycol mono-methyl ether and NMP is N-methylpyrrolidone; AROMATIC 200 and AROMATIC 150 are mixed aromatic solvents available from Exxon Mobil Corp.

[2] = Sunlight stability of marker solution, checked by GC
[3] = Stability and extractability of marker in xylenes solution against laundering agents, analysed by GC; details: 2000 mg/kg in xylenes, room temperature, 8 hours
[4] = 75:25 Aromatic 200H: cyclohexanone
[5] = 75:25 Aromatic 200H: o-sec-butylphenol

SOLUBILITY BEHAVIOR −10 C. [1, 4]: sol 7D sol 7D
SOLUBILITY BEHAVIOR −10 C. [1, 5]: sol 7D sol 7D
SMILES: CCCCCCCCCCCCOc1c(C(C)CC)cc(C(c2ccccc2)(c2ccccc2)c2ccccc2)cc1C(C)CC (centres unmarked)

SOLUBILITY BEHAVIOR −10 C. [1, 4]: sol 7D sol 7D
SOLUBILITY BEHAVIOR −10 C. [1, 5]: sol 7D sol 7D
SMILES: CCCCCCCCCCCCOc1ccc(C(c2ccccc2)(c2ccccc2)c2ccccc2)cc1C(C)(C)C

SOLUBILITY BEHAVIOR −10 C. [1, 4]: sol 7D sol 7D
SOLUBILITY BEHAVIOR −10 C. [1, 5]: sol 7D sol 7D
SMILES: CCCCCCCCCCCCOc1c(C(C)(C)C)cc(C(c2ccccc2)(c2ccccc2)c2ccccc2)cc1C(C)(C)C

SOLUBILITY BEHAVIOR −10 C. [1, 4]: xtls 6D xtls 6D
SOLUBILITY BEHAVIOR −10 C. [1, 5]: xtls 6D xtls 6D
SMILES: CCCCCCCCCCCCOc1c(C(C)(C)C)cc(C(C)(C)C)cc1C(c1ccccc1)(c1ccccc1)c1ccccc1

SOLUBILITY BEHAVIOR −10 C. [1, 4]: sol 7D
SOLUBILITY BEHAVIOR −10 C. [1, 5]: xtls 3D
SMILES: CCCCCCCCCCCCOc1ccc(C(c2ccccc2)(c2ccccc2)c2ccccc2)cc1C(C)C

SOLUBILITY BEHAVIOR −10 C. [1, 4]: xtls 4D
SMILES: CCCCCCCCCCCCOc1c(C(C)C)cc(C(c2ccccc2)(c2ccccc2)c2ccccc2)cc1C(C)C

SMILES: CCCCCCCCCCOc1ccc(C(c2ccccc2)(c2ccccc2)c2ccccc2)cc1C(C)CC (centres unmarked) [DecTsBuPh]
% Change ([2]; Apr. 5, 2012): −1.90%
% Change ([2]; Apr. 13, 2012): 2.40%
% Change ([2]; Apr. 23, 2012): 0.90%
% Change ([2]; May 8, 2012): −1.40%
% Change ([2]; May 15, 2012): 1.80%
[…] −10 C. ([1]; Aromatic 200): sol 33D
[…] −10 C. ([1]; DPGDME): sol 33D
% Change ([3]; 2% Charcoal): −0.76%
% Change ([3]; 5% Bleach): 1.08%
% Change ([3]; 5% H2SO4, 5% by weight): −0.04%
% Change ([3]; 5% NaOH, 5% by weight, GC vs stock solution): 0.10%
% Change ([3]; 50% NaOH, 5% by weight): 0.60%
% Change ([3]; 98% H2SO4, 5% by weight): −1.84%
% Change ([3]; Fuller's Earth): 0.79%
% Change ([3]; Iron Specks (2% metal specs wt/wt)): 1.76%
